Consider one substance from patent publication US20040142899A1, “Compositions and methods for enhanced biostability and altered biodistribution of oligonucleotides in mammals” (ISIS Pharmaceuticals, Inc., priority 1990, published 2004).

One data set deals with RNA. Put plainly: Tm change due to pyrene conjugation, against RNA. The data set is classed as binding. Conditions: 100 mM Na+, 10 nM phosphate, 0.1 mM EDTA, pH 7, 4 μM strand concentration. As for the experimental part:
(§1) Changes in Tm due to pyrene conjugation were evaluated against both DNA and RNA. Tm was measured in 100 mM Na^+, 10 nM phosphate, 0.1 mM EDTA, pH 7 at 4 μM strand concentration.

For the next data set, the system named is DNA. The data set can be described thus: Tm change due to pyrene conjugation, against DNA. The settings on record: 100 mM Na+, 10 nM phosphate, 0.1 mM EDTA, pH 7, 4 μM strand concentration. Type of data set: binding. As to the method:
as §1

For “5′-GCG-TGU*-CTG-CG (5'-GCG-TGU*-CTG-CG; 2'-O-aminohexyl uridine linker, as printed in the source, key not given here) [Oligomer 52, U* from 2′-O-[hexyl-(Ω-N-phthalimido)amino]uridine amidite; amino linker]”, in the data set on RNA, the “Tm v. RNA” value was found to be 55.5 °C. For the same substance, the “Tm v. DNA” value with DNA came out at 50.9 °C.
